# Where “and” joins values, the source holds several entries; their conditions need not be identical. Identical values can stand only once. Like-named read-outs stand apart in the source and are kept apart here.
# Tests used:
# blood-brain barrier [1] = assay: In vivo tracer experiment: brain uptake of ^3 H-sucrose and ^125 I-BSA after i.v. injection; parameters: species or system mouse; details: Example 11 text
# Method: The test compound was delivered to a restrained, unanesthetized mouse (30-35 g) via the tail vein. […] Fifteen or sixty minutes after the injection, the animal, anesthetized with 2% Avertin, was perfused via venipuncture with phosphate buffered saline followed by fixative. The brain was removed immediately, the medulla, pons and hypothalamus excised and the remaining tissue homogenized by passsage through a 3 cc needle into a preweighed scintillation vial containing 1.5 ml Soluene (Packard). The vial was weighed to determine wet tissue weight. Ten ml of Inst-Gel (Packard) was added to each sample after overnight incubation at 75° C. The samples were counted for DPM by liquid scintillation spectrometry. Values are expressed as DPM/gm tissue. A minimum of four animals/group were used for each experiment. Data are expressed as the mean fold-increase which is derived by dividing the treatment value by the control value. Numbers in parenthesis represent the number of experiments carried out for the particular condition.
# [2] = Behavioral assay: opioid-induced analgesia, hot plate; assay type: in vivo, mouse; details: Table 9, enkephalin 20 mg/kg
# Method: Morphine and the naturally occurring opioid peptides, endorphin and enkephalin, bind to μ opioid receptors in the brain and suppress the sensation of pain. […] Mice are placed on a surface uniformly heated to 55° C. The time it takes for the mouse to respond to the heat stimulus by licking its front or hind paws is measured. […] The latency is expressed as % analgesia. [formula] The purpose of these experiments is to test the ability of putative BBB openers to shift the morphine dose response curve to lower doses and thus have analgesic activity when delivered peripherally.
# blood-brain barrier [3] = details: in vivo; cited from earlier work
# [4] = test system: bovine brain capillary endothelial cells; assay: Transmonolayer (transendothelial cell) electrical resistance in the in vitro BBB model; details: for activity at 0.2 µM / activity at 0.01 µM / activity at 0.03 µM / activity at 0.1 µM: Bos taurus, Endothelial cell, read-out: Resistance (% of control); for effect of phosphodiesterase inhibitors on resistance: FIG. 7, Rolipram or RO-20-1724 17.5 μM, by 30 minutes, no other cyclic AMP elevating agents
# Method: The degree of tightness of tight junctions can be also assessed by transcellular electrical resistance measurements. For transendothelial cell resistance measurements, cells were grown on a porous solid support, e.g., a filter or membrane attached to a holding device in order adequately to suspend the cellular monolayer, such as the Costar Transwell apparatus or the ICN Cellogen. […] Cells were maintained in a growth medium or physiological saline, and calomel electrodes on each of the endothelial cells are connected by a saturated KCl - 3% agar bridge. Current is passed between two Ag--AgCl electrodes and the voltage measured with a Keithly multimeter. Resistance is calculated from the change in voltage across the monolayer induced when a short current pulse (10-100 μamp) is applied. The resistance of the filter or membrane alone is subtracted. The resistance, multiplied by the surface area of the filter or membrane, yields the resistance in ohms-cm^2.
# Bovine brain capillary endothelial cells were grown on polycarbonate filters in a conditioned growth medium containing either 5% or 10% PDHS. In controls, the growth medium contained 5% PDHS (.quadrature.) or 10% PDHS. […]
# Bovine brain endothelial cells were dissociated and plated on tissue culture dishes in 50% MEM/FCS - 50% ADCM. […]
# Bovine brain microvascular endothelial cells were isolated and grown on permeable filters in the BBB in vitro model of the invention. Cells were maintained in astrocyte-derived conditioned medium, but were not treated with agents that elevate cyclic AMP levels in such cells.
# Resistance was then measured at various times.
# The medium containing these cyclic AMP elevating agents was removed, and the cells were washed with fresh growth medium.
# [5] = test system: Type III cyclic GMP-noninhibitable phosphodiesterase; assay: Inhibition of cyclic AMP phosphodiesterase of brain microvascular endothelial cells
# blood-brain barrier [6] = assay: Brain uptake of ^3 H-sucrose and ^125 I-BSA after intracarotid infusion; assay type: in vivo
# Method: Staurosporine was administered by intracarotid infusion. The transport of ^3 H-sucrose and ^125 I-BSA was then determined. The data in Table 7 represent the amount of radioactivity remaining in the brain after infusion and washout. An average of 3-4 animals was used in each category.
# bovine endothelial cells [7] = assay: Transport across high resistance monolayers of bovine endothelial cells on filters; assay type: in vitro ADME; details: FIG. 3; compared to cell-free filters
# Source text: Still another means for assessing the tightness of junctions among endothelial cells in the blood-brain model of the invention is to compare the transport of a hydrophilic compound, e.g., sucrose, and a hydrophobic compound of similar size, e.g., chlorambucil, across filters with and without monolayered endothelial cells. When the transmonoloayer resistance is high, the transport of sucrose should be low compared to that of chlorambucil (or other hydrophobic compounds of similar size). Alternatively, when the resistance is high, the transport of sucrose should be much less (e.g., 50-fold or more) than across cell-free filters.
# bovine endothelial cells [8] = details: leaky tight junctions; cited from earlier work
# brain endothelial cells = assay: Leukocyte binding to cultures of blood brain barrier endothelial cells; assay type: cell-based, bovine or human; details: Table 14; Jurkat T-cell; + TNFα; two values per cell
# Method: When used to treat lymphocytes, the anti-β-1 hybridoma supernatant was used at a 1:2 dilution. The anti-α-4 antibody was purified by the manufacturer, and used at a 5 μg/ml concentration. The anti-β-2 was purified by the manufacturer, and used at 5 μg/ml. For treatment of lymphocytes, the lymphocytes were mixed with the above concentrations of antibody, and allowed to incubate on ice for a about 30 minutes prior to use. The cells were washed to remove unbound antibody, and resuspended in RPMI to a typical concentration of 10^7 cells/ml.
# Bovine or human brain endothelial cells were maintained in accordance with the blood brain barrier model as described in the present specification. […]
# In this manner, the endothelial cells were exposed to the agent on their ablumenal surface, as would be the typical situation during an inflammatory reaction in the brain. Immediately before the assay, the electrical resistance of the cultures was measured and the filters (supporting the endothelial cells) were washed at room temperature by dipping in three separate vats of D-MEM with 1% FBS and 20 mM Hepes (200 mls. each). […]
# In the second method, the leukocytes were prelabeled with a radioactive tracer and the degree of binding was quantified by measuring the amount of radioactivity associated with the entire endothelial surface on the culture filter. […]
# [9] = Table 7, Experiment 1, intracarotid infusion, 3-4 animals
compound,measurement,setting,value
"OC[C@H]1O[C@@H](n2cnc3c(NC4CCCC4)ncnc32)[C@H](O)[C@@H]1O [CPA, cyclopentyladenosine]",increase of uptake by brain of small (sucrose) and large (BSA) molecules,blood-brain barrier [1],≤ 300%
CC(C)C[C@H](NC(=O)[C@H](Cc1ccccc1)NC(=O)CNC(=O)CNC(=O)[C@@H](N)Cc1ccc(O)cc1)C(=O)O [Enkephalin],Percent Analgesia,[2]; Experiment 1,2.8%
same,Percent Analgesia,[2]; Experiment 2,6.4%
same,penetration into the brain / BBB crossing,blood-brain barrier [3],does not penetrate significantly into the brain
"C=C[C@@]1(C)CC(=O)[C@]2(O)[C@@]3(C)[C@@H](O)CCC(C)(C)[C@@H]3[C@H](O)[C@H](OC(C)=O)[C@@]2(C)O1 [Forskolin, forskolin]",enhancement of transmonolayer electrical resistance,[4]; brain capillary endothelial cells,over 8 fold
COC(=O)[C@@]1(O)C[C@H]2O[C@]1(C)n1c3ccccc3c3c4c(c5c6ccccc6n2c5c31)C(=O)NC4 [K252a],reversibility of effect of protein kinase inhibitors,[4],reversible
same,effect of protein kinase inhibitors on resistance,[4]; 10-200 nM,markedly reduce the resistance
same,activity at 0.2 µM,[4]; 1 h,79%
same,activity at 0.2 µM,[4]; 2.5 h,25%
same,activity at 0.2 µM,[4]; 24 h,24%
N[C@@H](Cc1ccc(O)c(O)c1)C(=O)O [L-DOPA],penetration into the brain / BBB crossing,blood-brain barrier [3],can cross the BBB
"C[C@H](Cc1ccccc1)Nc1ncnc2c1ncn2[C@@H]1O[C@H](CO)[C@@H](O)[C@H]1O [R-PIA, N^6 -(phenylisopropyl)-adenosine]",increase of uptake by brain of small (sucrose) and large (BSA) molecules,blood-brain barrier [1],≤ 300%
CCCCOc1cc(CC2CNC(=O)N2)ccc1OC (stereo not drawn) [RO-20-1724],effect of phosphodiesterase inhibitors on resistance,[4],substantially higher
same,inhibition of phosphodiesterase,[5],inhibited
COc1ccc(C2CNC(=O)C2)cc1OC1CCCC1 (stereo not drawn) [Rolipram],effect of phosphodiesterase inhibitors on resistance,[4],substantially higher
same,inhibition of phosphodiesterase,[5],inhibited
CN[C@@H]1C[C@H]2O[C@@](C)([C@@H]1OC)n1c3ccccc3c3c4c(c5c6ccccc6n2c5c31)C(=O)NC4 [Staurosporine],activity at 0.01 µM,[4]; 1 h,108%
same,activity at 0.03 µM,[4]; 1 h,64%
same,activity at 0.1 µM,[4]; 1 h,5.5%
same,activity at 0.01 µM,[4]; 2.5 h,20%
same,activity at 0.03 µM,[4]; 2.5 h,7.7%
same,activity at 0.1 µM,[4]; 2.5 h,0%
same,activity at 0.01 µM,[4]; 24 h,5.2%
same,activity at 0.03 µM,[4]; 24 h,2.3%
same,activity at 0.1 µM,[4]; 24 h,0%
same,"radioactivity remaining in the brain, ^3 H-Sucrose",blood-brain barrier [6],8.7 × 10^3 DPM
same,"radioactivity remaining in the brain, ^3 H-Sucrose",blood-brain barrier [6]; [9],24.3 × 10^3 DPM
same,"radioactivity remaining in the brain, ^125 I-BSA",blood-brain barrier [6]; [9],835 DPM
same,"radioactivity remaining in the brain, ^125 I-BSA","blood-brain barrier [6]; Table 7, Experiment 2, intracarotid infusion, 3-4 animals",520 DPM
same,effect on entry of tracers into the brain,blood-brain barrier [6]; intracarotid infusion,enhanced entry into the brain of both small (sucrose) and large (BSA) molecules
"Nc1ncnc2c1nc(Sc1ccc(Cl)cc1)n2[C@@H]1O[C@@H]2COP(=O)(O)O[C@H]2[C@H]1O [cyclic AMP analogue, 8-(4-chlorophenylthio) cyclic AMP]",effect on transmonolayer electrical resistance,"[4]; Example 1, FIG. 1, 250 μM, 5% PDHS",greatly increased transmonolayer electrical resistance
Cc1[nH]c(=O)c(C#N)cc1-c1ccncc1 [milrinone],effect of phosphodiesterase inhibitors on resistance,[4],ineffective
OC[C@H]1O[C@@](CO)(O[C@H]2O[C@H](CO)[C@@H](O)[C@H](O)[C@H]2O)[C@@H](O)[C@@H]1O [sucrose],transport across filters with cells,bovine endothelial cells [7],almost entirely prevented from leaking between the cells
same,"difference in the rate of sucrose across filters with and without cells, previous models",bovine endothelial cells [8],3 to 5 fold
CCCOc1ccccc1-c1nc2nn[nH]c2c(=O)[nH]1 [zaprinast],effect of phosphodiesterase inhibitors on resistance,[4],ineffective
TNFα,"lymphocyte binding, Count per Minute",brain endothelial cells,1430 Count per Minute and 1150 Count per Minute

# From patent US5260210A, “Blood-brain barrier model” (priority 1990, dated 1993)
